In patent publication US20250221930A1, “A COMPOSITION COMPRISING LIPID NANOPARTICLES AND AN ANTIFUNGAL POLYENE” (INSTITUT NATIONAL DE LA SANTÉ ET DE LA RECHERCHE MÉDICALE, priority 2022, published 2025):
≈ marks a conversion by molar mass, not a printed value. Where two headings read alike, the source gives them in different places.

Assays:
Lichtheimia ramosa = experiment: EUCAST MICs of AmB, ISA, AmB-loaded LNPs and AmB-ISA-loaded LNPs; assay type: cell-based; conditions: 24 h at 37° C.
Protocol: (§1) Briefly, a mass (80-120 mg) of an oil phase consisting of triglycerides (Labrafac®, or tributyrin in different mass ratios, i.e. 100% Labrafac® to 100% tributyrin) was supplemented with AmB (0,025 to 0.2 mg) and ISA (0.25 to 5 mg) and then mixed with 80 to 120 mg of PEG15HS (Solutol HS15®) and 500 to 800 μl of water to form an oil-in-water emulsion. This emulsion was then heated to 85° C., to obtain a water-in-oil emulsion, and then cooled to 40° C. Three such temperature cycles were performed and the system was then fast cooled to 4° C. The formulated nanoparticles were then characterized by size distribution and mean zeta potential measurements. Examples of formulations of LNPs loaded with AmB and AmB-ISA are detailed in Table 5:
(§2) Rhizopus arrhizus 1, Lichtheimia corymbifera and Lichtheimia ramosa strains were used. These correspond to the most frequently encountered species in human mucormycosis. These three strains were isolated from patients suffering from pulmonary mucormycosis.
(§3) MICs of AmB in solution, ISA in solution, AmB-loaded LNPs, and AmB-ISA-loaded LNPs were evaluated according to the European Committee on Antimicrobial Susceptibility Testing (EUCAST) guidelines. Briefly, MICs were determined by adding 100 μL of two-fold dilutions of AmB in solution, ISA in solution, AmB-LNPs or AmB-ISA-LNPs (0.008 to 4 mg/L) in 96-well plates. One hundred microliters of a spore suspension at a concentration of 105 spores/mL were added to the wells, and the plates were incubated for 24 h (Mucorales) or 48 h (A. fumigatus) at 37° C. […] Three experiments were performed for each strain.

Rhizopus arrhizus 1 = experiment: as above; assay type: cell-based; conditions: 24 h at 37° C.
Protocol: as §1, §2, §3

Lichtheimia corymbifera = experiment: as above; assay type: cell-based; conditions: 24 h at 37° C.
Protocol: as §1, §2, §3

Cryptococcus neoformans = experiment: EUCAST MICs of AmB alone and AmB formulated in LNPs; assay type: cell-based
Protocol: This medium was sterilized using a 0.22 μm pore-size filter.
AmB powder (Sigma-Aldrich) was dissolved in dimethyl sulfoxide to obtain a stock solution at 1000 mg/L, stored at −80° C. for six months.
On the day of use, AmB and freshly made AmB-loaded LNPs were diluted in RPMI medium to obtain the desired concentrations. The AmB-loaded LNPs were prepared as detailed in Example 5.
MICs of AmB alone and AmB formulated in LNPs were evaluated according to the European Committee on Antimicrobial Susceptibility Testing (EUCAST) guidelines. Briefly, MICs were determined by adding 100 μL of two-fold dilutions of AmB (0.008 to 4 mg/L) and LNPs-AmB (0.04 to 1024 mg/L) in 96-well plates. One hundred microliters of a fungal suspension at a final concentration of 10^5 CFU/mL was added to the wells, and the plates were incubated for 48 h at 30° C. MICs, defined as the lowest concentration of AmB inhibiting 90% of the growth of the fungal strain, were read after […] of incubation by measuring absorbance at 530 nm with an Infinite M200 Pro microplate reader (Tecan®, France). Three experiments were performed for each strain.

L. ramosa = experiment: Checkerboard MICs of AmB, ISA and PEG15HS in solution; assay type: cell-based, Lichtheimia ramosa; conditions: RPMI, 24 h at 37° C.
Protocol: AmB minimum inhibitory concentrations (MIC) of each strain of Mucorales was measured in RPMI in the presence of different concentrations of ISA or PEG15HS as described by the EUCAST broth microdilution antifungal susceptibility test methodology with modification for the checkerboard procedure. Checkerboards were performed by adding 100 μL of two-fold dilutions of AmB (0.008 to 4 mg/L) and ISA (0.008 to 4 mg/L) or PEG15HS (0.04 to 2752 mg/L) in 96 well plates. One hundred microliters of a spore suspension at a concentration of 105 spores/mL were added to the wells, and the plates were incubated for 24 h at 37° C. […] Three experiments were performed for each strain.
AmB MIC of each strain of Mucorales was measured in RPMI in the presence of different concentrations of ISA and a constant concentration of PEG15HS (100 times the concentration of AmB) as described by the EUCAST broth microdilution antifungal susceptibility test methodology with modification for the checkerboard procedure. Checkerboards were performed by adding 100 μL of two-fold dilutions of AmB (0.008 to 4 mg/L)+PEG15HS (0.8 to 400 mg/L) and ISA (0.008 to 4 mg/L) in 96 well plates. One hundred microliters of a spore suspension at a concentration of 105 spores/mL were added to the wells, and the plates were incubated for 24 h at 37° C. […] Three experiments were performed for each strain. […]

Aspergillus fumigatus = experiment: EUCAST MICs of AmB, ISA, AmB-loaded LNPs and AmB-ISA-loaded LNPs; assay type: cell-based; conditions: A. fumigatus 20 (ATCC 204305), 48 h at 37° C.
Protocol: as §1
Two reference strains (ATCC 16424 and ATCC 204305) and a clinical azole-resistant strain (AfR2) of Aspergillus fumigatus were used.
as §3

## C[C@@H]1[C@H](O)[C@@H](C)/C=C/C=C/C=C/C=C/C=C/C=C/C=C/[C@H](O[C@@H]2O[C@H](C)[C@@H](O)[C@H](N)[C@@H]2O)C[C@@H]2O[C@](O)(C[C@@H](O)C[C@@H](O)[C@H](O)CC[C@@H](O)C[C@@H](O)CC(=O)O[C@H]1C)C[C@H](O)[C@H]2C(=O)O [AmB, amphotericin B]
Human erythrocytes; in PBS, 5 to 15 mg/L of AmB
  hemolysis: induce hemolysis
Human erythrocytes; in RPMI, AmB 15, 30 mg/L
  hemolysis: induce hemolysis
Lichtheimia ramosa
  MIC (AmB): 1 µg/mL (≈ 1.08 µM)
Rhizopus arrhizus 1
  MIC (AmB): 1 µg/mL (≈ 1.08 µM)
Lichtheimia corymbifera
  MIC (AmB): 1 µg/mL (≈ 1.08 µM)
Cryptococcus neoformans
  effect on growth of the cryptococci at concentrations below the MIC: had no effect on the growth profile
Cryptococcus neoformans; all the isolates (eight clinical strains)
  MIC: 0.25 to 1 µg/mL
Cryptococcus neoformans; strain C1, 90% growth inhibition, absorbance at 530 nm
  MIC: 0.5 µg/mL (≈ 0.541 µM)
Cryptococcus neoformans; strain C2, 90% growth inhibition, absorbance at 530 nm
  MIC: 0.25 µg/mL (≈ 0.271 µM)
Cryptococcus neoformans; strain C3, 90% growth inhibition, absorbance at 530 nm
  MIC: 0.5 µg/mL (≈ 0.541 µM)
Cryptococcus neoformans; strain C4, 90% growth inhibition, absorbance at 530 nm
  MIC: 0.5 µg/mL (≈ 0.541 µM)
Cryptococcus neoformans; strain C5, 90% growth inhibition, absorbance at 530 nm
  MIC: 1 µg/mL (≈ 1.08 µM)
Cryptococcus neoformans; strain C6, 90% growth inhibition, absorbance at 530 nm
  MIC: 1 µg/mL (≈ 1.08 µM)
Cryptococcus neoformans; strain C7, 90% growth inhibition, absorbance at 530 nm
  MIC: 1 µg/mL (≈ 1.08 µM)
Cryptococcus neoformans; strain C8, 90% growth inhibition, absorbance at 530 nm
  MIC: 1 µg/mL (≈ 1.08 µM)
L. ramosa
  MIC of AmB: 1 µg/mL
Aspergillus fumigatus
  MIC (AmB): 2 µg/mL (≈ 2.16 µM)
